Measured values taken from patent US6465491B2, “6-phenylpyridyl-2-amine derivatives” (Pfizer Inc., priority 1996, dated 2002).
Counter-ions that a name gives are not always drawn.

Compound | melting point
Nc1cccc(-c2ccc(CCN3CCC(C(c4ccccc4)c4ccccc4)CC3)cc2)n1 (as salt: hydrochloride) [Example 90, 6-{4-[2-(4-Benzhydryl-piperidin-1-yl)-ethyl]-phenyl}-pyridin-2-ylamine] | 175 °C (dec.)
Cc1cccc(N2CCN(CCc3ccc(-c4cccc(N)n4)cc3)CC2)c1 [Example 8, 6-{4-[2-(4-m-Tolyl-piperazin-1-yl)-ethyl]-phenyl}-pyridin-2-ylamine] | 158 to 160 °C
Nc1cccc(-c2ccc(CNCCc3ccccc3)cc2)n1 (as salt: hydrochloride) [Example 135, 6-[4-(Phenethylamino-methyl)-phenyl]-pyridin-2-ylamine] | 236 to 238 °C
Nc1cccc(-c2ccc(CCN3C4CCC3CC(NC(=O)c3ccccc3)C4)cc2)n1 (centres unmarked) (as salt: hydrochloride) | 211 °C (dec.)
Nc1cccc(-c2ccc(CCN3CCC4(CC3)NC(=O)N(Cc3ccccc3)C4=O)cc2)n1 (as salt: hydrochloride) [Example 43, 8-{2-[4-(6-Amino-pyridin-2-yl)-phenyl]-ethyl}-3-benzyl-1,3,8-triaza-spiro[4.5]decane-2,4-dione] | 190 °C (dec.)
Nc1cccc(-c2ccc(CCN3CC4C(C3)C4NCCc3ccccc3)cc2)n1 (centres unmarked) (as salt: hydrochloride) [Example 46, (3-{2-[4-(6-Amino-pyridin-2-yl)-phenyl]-ethyl}-3-aza-bicyclo[3.1.0]hex-6-yl)-phenethyl-amine] | 165 °C (dec.)
NC(=O)CNC1C2CN(CCc3ccc(-c4cccc(N)n4)cc3)CC21 (centres unmarked) [Example 52, 2-(3-{2-[4-(6-Amino-pyridin-2-yl)-phenyl]-ethyl}-3-aza-bicyclo[3.1.0]hex-6-ylamino)-acetamide] | 140 °C (dec.)
Nc1cccc(-c2ccc(CCNC3CCN(C(=O)Nc4ccccc4)C3)cc2)n1 (centres unmarked) (as salt: hydrochloride) [Example 80, 3-{2-[4-(6-Amino-pyridin-2-yl)-phenyl]-ethylamino}-pyrrolidine-1-carboxylic acid phenylamide] | 130 °C (dec.)
Nc1cccc(-c2ccc(CCN3CCC(N)(C(=O)NCCc4ccccc4)CC3)cc2)n1 (as salt: hydrochloride) [Example 79, 4-Amino-1-{2-[4-(6-amino-pyridin-2-yl)-phenyl]-ethyl}-piperidine-4-carboxylic acid phenethyl-amide] | 215 to 219 °C (dec.)
Nc1cccc(-c2ccc(CCN3CCC(NC(=O)Nc4ccccc4)C3)cc2)n1 (centres unmarked) (as salt: hydrochloride) [Example 72, 1-(1-{2-[4-(6-Amino-pyridin-2-yl)-phenyl]-ethyl}-pyrrolidin-3-yl)-3-phenyl-urea] | 130 °C (dec.)
Nc1cccc(-c2ccc(CCNC3CC4CCC(C3)N4Cc3ccc(F)cc3)cc2)n1 (centres unmarked) (as salt: hydrochloride) | 190 °C (dec.)
Nc1cccc(-c2ccc(CCNC3CC4CCC(C3)N4)cc2)n1 (centres unmarked) (as salt: hydrochloride) | 170 °C (dec.)
Nc1cccc(-c2ccc(CCN3CCC(NC(=O)Cc4ccc(F)cc4)C3)cc2)n1 (centres unmarked) [Example 56, N-(1-{2-[4-(6-Amino-pyridin-2-yl)-phenyl]-ethyl}-pyrrolidin-3-yl)-2-(4-fluoro-phenyl)-acetamide] | 90 °C (dec.)
COc1ccc(NC(=O)N2CCN(CCc3ccc(-c4cccc(N)n4)cc3)CC2)cc1 [Example 31, 4-{2-[4-(6-Amino-pyridin-2-yl)-phenyl]-ethyl}-piperazine-1-carboxylic acid (4-methoxy-phenyl)-amide] | 182 to 184 °C
CC(Cc1ccccc1)N1CCN(CCc2ccc(-c3cccc(N)n3)cc2)CC1 (centres unmarked) (as salt: hydrochloride) [Example 54, 6-(4-{2-[4-(1-Methyl-2-phenyl-ethyl)-piperazin-1-yl]-ethyl}-phenyl)-pyridin-2-ylamine] | 252 to 256 °C
CC(C)NC(=O)CN1CCN(CCc2ccc(-c3cccc(N)n3)cc2)CC1 [Example 23, 2-(4-{2-[4-(6-Amino-pyridin-2-yl)-phenyl]-ethyl}-piperazin-1-yl)-N-isopropyl-acetamide] | 163 to 165 °C
Nc1cccc(-c2ccc(CCN3CCN(C(=O)c4ccccc4)CC3)cc2)n1 [Example 25, (4-{2-[4-(6-Amino-pyridin-2-yl)-phenyl]-ethyl}-piperazin-1-yl)-phenyl-methanone] | 125 to 127 °C
Nc1cccc(-c2ccc(CCNC3CC4COCC(C3)N4)cc2)n1 (centres unmarked) (as salt: hydrochloride) [107] | 170 °C (dec.)
Nc1cccc(-c2ccc(CCNC34CC5CC(CC(C5)C3)C4)cc2)n1 (as salt: hydrochloride) [Example 115, 6-{4-[2-(Adamantan-1-ylamino)-ethyl]-phenyl}-pyridin-2-ylamine] | 200 to 220 °C (dec.)
Nc1cccc(-c2ccc(CCNC3CCc4ccccc4C3)cc2)n1 (centres unmarked) (as salt: hydrochloride) [Example 18, 6-{4-[2-(1,2,3,4-Tetrahydro-naphthalen-2-ylamino)-ethyl]-phenyl}-pyridin-2-ylamine] | 320 to 322 °C
Nc1cccc(-c2ccc(CCN3CCN(CC(O)c4ccccc4)CC3)cc2)n1 (centres unmarked) (as salt: hydrochloride) [Example 103, 2-(4-{2-[4-(6-Amino-pyridin-2-yl)-phenyl]-ethyl}-piperazin-1-yl)-1-phenyl-ethanol] | 235 °C (dec.)

Compound | melting point
Nc1cccc(-c2ccc(CCNC3CC4CCC(C3)N4Cc3ccccc3)cc2)n1 (centres unmarked) (as salt: hydrochloride) | 260 °C (dec.)
Nc1cccc(-c2ccc(CCNCCCCCc3ccccc3)cc2)n1 [Example 126, 6-{4-[2-(5-Phenyl-pentylamino)-ethyl]-phenyl}-pyridin-2-ylamine] | 60 to 70 °C
Nc1cccc(-c2ccc(CN3CCCCC3)cc2)n1 (as salt: hydrochloride) [Example 138, 6-(4-Piperidin-1-ylmethyl-phenyl)-pyridin-2-ylamine] | > 250 °C
Nc1cccc(-c2ccc(CCN3CCC(N)(C(=O)NCc4ccccc4)CC3)cc2)n1 (as salt: hydrochloride) [Example 59, 4-Amino-1{-2-[4-(6-amino-pyridin-2-yl)-phenyl]-ethyl}-piperidine-4-carboxylic acid benzylamide] | > 240 °C (dec.)
COCC(=O)N1CCN(CCc2ccc(-c3cccc(N)n3)cc2)CC1 [Example 11, 1-(4-{2-[4-(6-Amino-pyridin-2-yl)-phenyl]-ethyl}-piperazin-1-yl)-2-methoxy-ethanone] | 148 to 150 °C
Nc1cccc(-c2ccc(CCCNC3CCc4ccccc4C3)cc2)n1 (centres unmarked) (as salt: hydrochloride) [Example 127, 6-{4-[3-(1,2,3,4-Tetrahydro-naphthalen-2-ylamino)-propyl]-phenyl}-pyridin-2-ylamine] | 120 to 130 °C
Nc1cccc(-c2ccc(CCN3Cc4ccccc4CC3C(=O)O)cc2)n1 (centres unmarked) (as salt: hydrochloride) [Example 28, 2-{2-[4-(6-Amino-pyridin-2-yl)-phenyl]ethyl}-1,2,3,4-tetrahydro-isoquinoline-3-carboxylic acid] | 110 °C (dec.)
Nc1cccc(-c2ccc(CCN3CCN(C(=O)COc4ccccc4)CC3)cc2)n1 | 127 to 130 °C
Nc1cccc(-c2ccc(CNC3Cc4ccccc4C3)cc2)n1 (as salt: hydrochloride) [Example 139, 6-[4-(Indan-2-ylaminomethyl)-phenyl]-pyridin-2-ylamine] | 185 to 187 °C
CN1CCN(CCc2ccc(-c3cccc(N)n3)cc2)CC1 (as salt: hydrochloride) [Example 109, 6-{4-[2-(4-Methyl-piperazin-1-yl)-ethyl]-phenyl}-pyridin-2-ylamine] | 170 °C (dec.)
Nc1cccc(-c2ccc(CCCN3CCN(CCc4ccccc4)CC3)cc2)n1 (as salt: hydrochloride) [Example 129, 6-{4-[3-(4-Phenethyl-piperazin-1-yl)-propyl]-phenyl}-pyridin-2-ylamine] | 125 to 140 °C
CC(=O)N(CCc1ccc(-c2cccc(N)n2)cc1)C1CCN(Cc2ccccc2)CC1 (as salt: hydrochloride) | 60 to 70 °C (dec.)
Nc1cccc(-c2ccc(CCN3CCC(NC(=O)NCc4ccccc4)C3)cc2)n1 (centres unmarked) (as salt: hydrochloride) [Example 73, 1-(1-{2-[4-(6-Amino-pyridin-2yl)-phenyl]-ethyl}-pyrrolidin-3-yl)-3-benzyl-urea] | 90 °C (dec.)
Nc1cccc(-c2ccc(CCN3CCN(C(=O)Cc4ccc(F)cc4)CC3)cc2)n1 | 143 to 145 °C
Cc1ccc(NC(=O)N2CCN(CCc3ccc(-c4cccc(N)n4)cc3)CC2)cc1 [Example 30, 4-{2-[4-(6-Amino-pyridin-2-yl)-phenyl]-ethyl}-piperazine-1-carboxylic acid p-tolyl-amide] | 160 to 162 °C
Nc1cccc(-c2ccc(CCN3CCN(CCCc4ccccc4)CC3)cc2)n1 (as salt: hydrochloride) [Example 40, 6-(4-{2-[4-(3-Phenyl-propyl)-piperazin-1-yl]-ethyl}-phenyl)-pyridin-2-ylamine] | 258 to 264 °C
Nc1cccc(-c2ccc(CCN3CCc4ccccc4C3)cc2)n1 [Example 6, 6-{4-[2-(3,4-Dihydro-1H-isoquinolin-2-yl)-ethyl]-phenyl}-pyridin-2-ylamine] | 130 to 132 °C
Cc1cc(N)nc(-c2ccc(CCN3CCN(CCc4ccccc4)CC3)cc2)c1 (as salt: hydrochloride) [Example 128, 6-{4-[2-(4-Phenethyl-piperazin-1-yl)-ethyl]-phenyl}-4-methyl-pyridin-2-ylamine] | 242 to 250 °C
Nc1cccc(-c2ccc(CCN3CCC4(CC3)NC(=O)N(CCc3ccccc3)C4=O)cc2)n1 (as salt: hydrochloride) [Example 57, 8-{2-[4-(6-Amino-pyridin-2-yl)-phenyl]-ethyl}-3-phenethyl-1,3,8-triaza-spiro[4.5]decane-2,4-dione] | 176 to 180 °C
Nc1cccc(-c2ccc(CCNC3C4CC5CC(C4)CC3C5)cc2)n1 (centres unmarked) (as salt: hydrochloride) [Example 116, 6-{4-[2-(Adamantan-2-ylamino)-ethyl]-phenyl}-pyridin-2-ylamine] | 215 to 230 °C (dec.)
